# Values quoted from earlier work as cited in patent publication US20080045610A1, “Methods for regulating neurotransmitter systems by inducing counteradaptations” (priority 2004, published 2008).
# Legend:
# opiate receptor = details: compared with native morphine compound
# [1] = in vivo
# [2] = parent compound itself
compound,measurement,setting,value
CN1CC[C@]23c4c5ccc(O)c4O[C@H]2CC=C[C@H]3[C@H]1C5 [6-desoxymorphine],activity relative to native morphine,opiate receptor,10 times
CC(=O)Oc1ccc2c3c1O[C@H]1[C@@H](OC(C)=O)C=C[C@H]4[C@@H](C2)N(C)CC[C@@]341 [diacetylmorphine],oral bioavailability,,~67%
C=C1CC[C@@]2(O)[C@H]3Cc4ccc(O)c5c4[C@@]2(CCN3CC2CC2)[C@H]1O5 [nalmefene],liver toxicity,[1],no dose dependent liver toxicity
same,half-life,[2],8 h
